# Test results as given in patent US9000020B2, “Linked dibenzimidazole antivirals” (Enanta Pharmaceuticals, Inc., priority 2009, dated 2015).
# Tested on: HCV 1b genotype replicon
# Assay: HCV Replicon Assay - qRT-PCR (HCV RNA detection)
# Type: cell-based
# Conditions: Hepatitis C virus, from the qRT-PCR or luciferase assay (not specified which), read-out: Genotype-1b replicon EC50 Range
# Text: HCV replicon cell lines (kindly provided by R. Bartenschlager) isolated from colonies as described by Lohman et. al. (Lohman et al. (1999) Science 285: 110-113, expressly incorporated by reference in its entirety) and used for all experiments. The HCV replicon has the nucleic acid sequence set forth in EMBL Accession No.: AJ242651, the coding sequence of which is from nucleotides 1801 to 8406.
# The coding sequence of the published HCV replicon was synthesized and subsequently assembled in a modified plasmid pBR322 (Promega, Madison, Wis.) using standard molecular biology techniques. One replicon cell line (“SGR 11-7”) stably expresses HCV replicon RNA which consists of (i) the HCV 5′UTR fused to the first 12 amino acids of the capsid protein, (ii) the neomycin phosphotransferase gene (neo), (iii) the IRES from encephalomyocarditis virus (EMCV), and (iv) HCV NS2 to NS5B genes and the HCV 3′UTR. Another replicon cell line (“Huh-luc/neo-ET”) described by Vrolijk et. al. (Vrolijk et. al. (2003) Journal of Virological Methods 110:201-209, expressly incorporated by reference in its entirety) stably expresses HCV replicon RNA which consists of (i) the HCV 5′UTR fused to the first 12 amino acids of the capsid protein, (ii) the firefly luciferase reporter gene, (iii) the ubiquitin gene, (iv) the neomycin phosphotransferase gene (neo), (v) the IRES from encephalomyocarditis virus (EMCV), and (vi) HCV NS3 to NS5B genes that harbor cell culture adaptive mutations (E1202G, T1280I, K1846T) and the HCV 3′UTR.
# These cell lines were maintained at 37° C., 5% CO2, 100% relative humidity in DMEM (Cat #11965-084, Invitrogen), with 10% fetal calf serum (“FCS”, Invitrogen), 1% non-essential amino acids (Invitrogen), 1% of Glutamax (Invitrogen), 1% of 100× penicillin/streptomycin (Cat #15140-122, Invitrogen) and Geneticin (Cat #10131-027, Invitrogen) at 0.75 mg/ml or 0.5 mg/ml for 11-7 and Huh-luc/neo-ET cells, respectively.
# EC50 values of single agent compounds and combinations were determined by HCV RNA detection using quantitative RT-PCR, according to the manufacturer's instructions, with a TaqMan® One-Step RT-PCR Master Mix Reagents Kit (Cat #AB 4309169, Applied Biosystems) on an ABI Model 7500 thermocycler. The TaqMan primers used for detecting and quantifying were obtained from Integrated DNA Technologies. HCV RNA was normalized to GAPDH RNA levels in drug-treated cells, which was detected and quantified using the Human GAPDH Endogenous Control Mix (Applied Biosystems, AB 4310884E). Total cellular RNA was purified from 96-well plates using the RNAqueous 96 kit (Ambion, Cat #AM1812). Chemical agent cytotoxicity was evaluated using an MTS assay according to the manufacturer's directions (Promega).
# The compounds of the present invention can be effective against the HCV 1b genotype. It should also be understood that the compounds of the present invention can inhibit multiple genotypes of HCV. In one embodiment, compound of the present invention are active against the 1a, 1b, 2a, 2b, 3a, 4a, and 5a genotypes. […] EC50 ranges against HCV 1b are as follows: A>10 nM; B 1-10 nM; C<1 nM.
row,SMILES,EC50 [nM]
1,CN(C)[C@@H](C(=O)N1CCC[C@H]1c1nc2cc(-c3ccc(-c4ccc5[nH]c([C@@H]6CCCN6C(=O)[C@@H](c6ccccc6)N(C)C)nc5c4)cc3)ccc2[nH]1)c1ccccc1 [Compound 2],< 1
2,COC(=O)N[C@@H](C(=O)N1CCC[C@H]1c1nc2cc(-c3ccc(-c4ccc5[nH]c([C@@H]6CCCN6C(=O)[C@H](NC(=O)OC)c6ccccc6)nc5c4)cc3)ccc2[nH]1)c1ccccc1 [Compound 3],< 1
3,CO[C@@H](C(=O)N1CCC[C@H]1c1nc2cc(-c3ccc(-c4ccc5[nH]c([C@@H]6CCCN6C(=O)[C@H](OC)c6ccccc6)nc5c4)cc3)ccc2[nH]1)c1ccccc1 [Compound 20],< 1
4,O=C([C@@H]1CCCO1)N1CCC[C@H]1c1nc2cc(-c3ccc(-c4ccc5[nH]c([C@@H]6CCCN6C(=O)[C@@H]6CCCO6)nc5c4)cc3)ccc2[nH]1 [Compound 25],> 10
5,O=C([C@H]1CCCO1)N1CCC[C@H]1c1nc2cc(-c3ccc(-c4ccc5[nH]c([C@@H]6CCCN6C(=O)[C@H]6CCCO6)nc5c4)cc3)ccc2[nH]1 [Compound 26],> 10
6,COC(=O)N[C@H]1CC[C@H](C(=O)N2CCC[C@H]2c2nc3cc(-c4ccc(-c5ccc6[nH]c([C@@H]7CCCN7C(=O)[C@H]7CC[C@H](NC(=O)OC)CC7)nc6c5)cc4)ccc3[nH]2)CC1 [Compound 42],> 10
7,O=C(c1ccncc1)N1CCC[C@H]1c1nc2cc(-c3ccc(-c4ccc5[nH]c([C@@H]6CCCN6C(=O)c6ccncc6)nc5c4)cc3)ccc2[nH]1 [Compound 52],> 10
8,O=C(c1ccccn1)N1CCC[C@H]1c1nc2cc(-c3ccc(-c4ccc5[nH]c([C@@H]6CCCN6C(=O)c6ccccn6)nc5c4)cc3)ccc2[nH]1 [Compound 54],> 10
9,COC(=O)N[C@@H](C)C(=O)N1CCC[C@H]1c1nc2cc(-c3ccc(-c4ccc5[nH]c([C@@H]6CCCN6C(=O)[C@H](C)NC(=O)OC)nc5c4)cc3)ccc2[nH]1 [Compound 62],< 1
10,CC[C@H](NC(=O)OC)C(=O)N1CCC[C@H]1c1nc2cc(-c3ccc(-c4ccc5[nH]c([C@@H]6CCCN6C(=O)[C@H](CC)NC(=O)OC)nc5c4)cc3)ccc2[nH]1 [Compound 67],< 1
11,COC(=O)N[C@H](C(=O)N1CCC[C@H]1c1nc2cc(-c3ccc(-c4ccc5[nH]c([C@@H]6CCCN6C(=O)[C@@H](NC(=O)OC)[C@@H](C)O)nc5c4)cc3)ccc2[nH]1)[C@@H](C)O [Compound 70],< 1
12,COC(=O)N[C@H](C(=O)N1CCC[C@H]1c1nc2cc(-c3ccc(-c4ccc5[nH]c([C@@H]6CCCN6C(=O)[C@@H](NC(=O)OC)[C@@H](C)OC)nc5c4)cc3)ccc2[nH]1)[C@@H](C)OC [Compound 72],< 1
13,COC(=O)N[C@H](C(=O)N1CCC[C@H]1c1nc2cc(-c3ccc(-c4ccc5[nH]c([C@@H]6CCCN6C(=O)[C@@H](NC(=O)OC)C6CC6)nc5c4)cc3)ccc2[nH]1)C1CC1 [Compound 78],< 1
14,COC(=O)N[C@H](C(=O)N1CCC[C@H]1c1nc2cc(-c3ccc(-c4ccc5[nH]c([C@@H]6CCCN6C(=O)[C@@H](NC(=O)OC)C(C)C)nc5c4)cc3)ccc2[nH]1)C(C)C [Compound 83],< 1
15,COC(=O)N[C@@H](Cn1cccn1)C(=O)N1CCC[C@H]1c1nc2cc(-c3ccc(-c4ccc5[nH]c([C@@H]6CCCN6C(=O)[C@H](Cn6cccn6)NC(=O)OC)nc5c4)cc3)ccc2[nH]1 [Compound 114],< 1
16,COC(=O)N[C@@H](C(=O)N1CCC[C@H]1c1nc2cc(N3CCN(c4ccc5[nH]c([C@@H]6CCCN6C(=O)[C@H](NC(=O)OC)c6ccccc6)nc5c4)CC3)ccc2[nH]1)c1ccccc1 [Compound 354],< 1
17,COC(=O)N[C@@H](C(=O)N1CCC[C@H]1c1nc2cc(N3CC(=O)N(c4ccc5[nH]c([C@@H]6CCCN6C(=O)[C@H](NC(=O)OC)c6ccccc6)nc5c4)CC3=O)ccc2[nH]1)c1ccccc1 [Compound 357],> 10
18,CC(C)[C@H](NC(=O)OCc1ccccc1)C(=O)N1CCC[C@H]1c1nc2cc(-c3ccc(-c4ccc5[nH]c([C@@H]6CCCN6C(=O)[C@@H](NC(=O)OCc6ccccc6)C(C)C)nc5c4)cc3)ccc2[nH]1 [Compound 361],> 10
19,COC(=O)N[C@H](C(=O)N1CCC[C@H]1c1nc2cc(-c3ccc(-c4ccc5[nH]c([C@@H]6CCCN6C(=O)[C@@H](NC(=O)OC)C(C)(C)C)nc5c4)cc3)ccc2[nH]1)C(C)(C)C [Compound 372],< 1
